Biological target: T1, Human Renin (Homo sapiens, UniProt P00797)
T1 construct: purchased National Institute for Biological Standards, London
T1 sequence (P00797 67-406): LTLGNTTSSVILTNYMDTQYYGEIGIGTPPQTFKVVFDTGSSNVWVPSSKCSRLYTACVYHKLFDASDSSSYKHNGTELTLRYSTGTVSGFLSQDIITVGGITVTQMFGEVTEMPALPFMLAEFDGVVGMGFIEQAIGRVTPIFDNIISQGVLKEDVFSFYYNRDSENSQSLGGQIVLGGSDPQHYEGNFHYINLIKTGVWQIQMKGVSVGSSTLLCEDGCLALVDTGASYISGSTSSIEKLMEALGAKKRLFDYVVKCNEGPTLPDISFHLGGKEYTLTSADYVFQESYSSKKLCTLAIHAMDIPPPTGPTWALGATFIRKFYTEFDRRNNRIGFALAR
Test: Human renin inhibition in vitro (angiotensin I produced, determined by radioimmunoassay)
Format: biochemical
Details: human plasma, pH 7.4, 37° C., two hours
Description: Compounds of Formula I were evaluated as inhibitors of human renin in an in vitro assay, as follows: This human renin inhibition test has been previously described in detail [Papaioannou et al., Clinical and Experimental Hypertension, A7(9), 1243-1257 (1985)]. Human renin was obtained from the National Institute for Biological Standards, London. An incubation mixture was prepared containing the following components: in a total volume of 0.25 mL: 100 mM Tris-acetate buffer at pH 7.4, 25×10^-6 Goldblatt units of renin, 0.05 mL of plasma from human volunteers taking oral contraceptives, 6.0 mM Na-EDTA, 2.4 mM phenylmethyl sulfonyl fluoride, 1.5 mM 8-hydroxyquinoline, 0.4 mg/mL bovine serum albumin (BSA), and 0.024 mg/mL neomycin sulfate. This mixture was incubated for two hours at 37° C. in the presence or absence of renin inhibitors. The produced angiotensin I was determined by radioimmunoassay (New England Nuclear kit). Test compounds to be assayed were dissolved in DMSO and diluted with 100 mM Tris-acetate buffer at pH 7.4 containing 0.5% BSA to the appropriate concentration. The final concentration of organic solvent in the reaction mixture was less than 1%. Control incubations at 37° C. were used to correct for effects of organic solvent on renin activity.

- IC50: 1.3 nM
Structure (SMILES): CC(C)C[C@H](O)[C@H](O)[C@H](CC1CCCCC1)NC(=O)C(CC1CC1)NC(=O)C(Cc1ccccc1)CS(=O)(=O)CCN(C)C (stereo partly drawn) [Example 1, N-[2-[[1S,1R*-(cyclohexylmethyl)-2S*,3R* -dihydroxy-5-methylhexyl]amino]-1R*-(cyclopropylmethyl)-2-oxoethyl]-α-[[[2-(dimethylamino)ethyl]sulfonyl]methyl]benzenepropanamide]

Source: patent publication US5416119A, “Alkylaminoalkyl-terminated sulfide/sulfonyl-containing cycloalkyl-alanine amino-diol compounds for treatment of hypertension” (G. D. Searle & Co., priority 1993, dated 1995)
